The subject of one experiment is Scots pine roots. The experiment is described as follows: Evaluation of mycorrhiza of Scots pine roots (chitin content). The format is in vivo. The note with it: fertilization with arginine.
The test system of another experiment is Arabidposis thaliana. The experiment can be described thus: Growth and allocation of biomass as affected by nitrogen form in Arabidopsis. The format is in vivo. Conditions: sterile culture 21 days, total nitrogen 6 mM.

Consider `N=C(N)NCCC[C@H](N)C(=O)O` [L-Arginine], for which the “chitin content of roots versus reference (in words)” value with Scots pine roots is “substantially higher content of chitin in roots”. Take `O=[N+]([O-])O` [nitrate]: in the experiment with Arabidposis thaliana, the Root fraction was 0.12 and the Total biomass is given as 4.63.

(Values after US9481610B2, “Use of a fertilizer containing L-amino acid for improving root growth and growth of mycorrhiza” (SweTree Technologies AB, priority 2007, dated 2016).)
